# System: Plasmodium falciparum
# Experiment: Antimalarial activity against Plasmodium falciparum 3D7 assessed as inhibition of parasite growth by measuring minimum inhibitory concentration by microassay
# Format: functional
# Details: not given
row,SMILES,MIC
1,Cc1ccc(C2=C/C(=C/c3cc4cc(C)ccc4nc3Cl)C(=O)O2)cc1,50 µg/mL
2,Cc1ccc(C2=C/C(=C/c3cc4cc(C)ccc4nc3Cl)C(=O)O2)c(C)c1,10 µg/mL
3,COc1ccc2nc(Cl)c(/C=C3/C=C(c4ccc(C)cc4C)OC3=O)cc2c1,10 µg/mL

# System: Plasmodium falciparum
# Experiment: Antiplasmodial activity against chloroquine sensitive Plasmodium falciparum GC03 infected in human erythrocyte assessed as inhibition of parasite growth incubated for 48 hrs by SYBR Green dye based fluorescence assay
# Format: functional, organism-based
# Details: not given
row,SMILES,IC50
1,N=C(N)c1ccc(-c2cn(-c3ccc(C(=N)N)cc3)nn2)cc1,87 nM
2,N=C(N)c1ccc(-n2cc(-c3cccc(C(=N)N)c3)nn2)cc1,440 nM
3,N=C(N)c1ccc(-c2cn(-c3cccc(C(=N)N)c3)nn2)cc1,276 nM

# System: Plasmodium falciparum
# Experiment: Antiplasmodial activity against chloroquine resistant Plasmodium falciparum RKL-2 assessed as inhibition of parasite growth incubated for 36 to 40 hrs by Giemsa staining based microscopic analysis
# Format: functional, organism-based
# Details: not given
row,SMILES,IC50
1,CCN(Cc1cc(C2(C)OOC(c3ccncc3)OO2)ccc1O)c1ccccc1 (stereo not drawn),5.3 µg/mL
2,CCN(Cc1cc(C2(C)OOC(c3ccccc3)OO2)ccc1O)c1ccccc1 (stereo not drawn),5.3 µg/mL
3,CCN(Cc1cc(C2(C)OOC(c3cccs3)OO2)ccc1O)c1ccccc1 (stereo not drawn),5.3 µg/mL
4,CCN(Cc1cc(C2(C)OOC(c3ccccn3)OO2)ccc1O)c1ccccc1 (stereo not drawn),5.3 µg/mL
5,CCN(Cc1cc(C2(C)OOC(c3ccco3)OO2)ccc1O)c1ccccc1 (stereo not drawn),5.3 µg/mL

# System: Plasmodium falciparum
# Experiment: Antiplasmodial activity against chloroquine resistant Plasmodium falciparum RKL9 infected in human erythrocyte assessed as inhibition of parasite growth incubated for 24 hrs by three fold serial dilution assay
# Format: functional
# Details: not given
row,SMILES,inhibition (INH)
1,O=C(N/N=C/C=C/c1ccccc1)c1ccncc1,80%
2,O=C(N/N=C/c1ccc(O)cc1)c1ccncc1,90%
3,COc1ccc(/C=N/NC(=O)c2ccncc2)cc1O,91%

# System: Plasmodium berghei
# Experiment: Antimalarial activity against Plasmodium berghei ANKA infected in Swiss albino mouse assessed as reduction in parasitemia at 50 micromol/kg,po administrated for 4 days by Giemsa staining based microscopic analysis
# Format: functional
# Design: scale not given: the % may be the effect or the level left
# Details: dose 50 µmol/kg, time 4 day
row,SMILES,Activity
1,Cc1ccc(-n2cc(C=O)c(-c3ccccc3)n2)cc1,85%
2,Cc1ccc(-n2cc(C(=O)O)c(-c3ccccc3)n2)cc1,95%
3,O=Cc1cn(-c2ccc(Cl)cc2)nc1-c1ccccc1,83%

# System: Plasmodium falciparum
# Experiment: Antiplasmodial activity against chloroquine sensitive Plasmodium falciparum 3D7 assessed as inhibition of parasite growth incubated for 48 hrs by Malstat reagent based spectrophotometric
# Format: functional, organism-based
# Details: 3D7, 48 h
row,SMILES,IC50
1,CC(=O)Nc1cc(/C=C/c2ccc(F)cc2)cc2cc(-c3ccc(F)cc3)[nH]c12,2140 nM
2,CC(=O)Nc1cc(-c2ccc(F)cc2)cc2c(C(=O)C(F)(F)F)c(-c3ccc(F)cc3)[nH]c12,2520 nM
3,CC(=O)Nc1cc(-c2ccc(F)cc2)cc2cc(-c3ccc(F)cc3)[nH]c12,1430 nM
4,COc1ccc(-c2[nH]c3c(NC(C)=O)cc(/C=C/c4ccc(F)cc4)cc3c2C(=O)C(F)(F)F)cc1,3390 nM

# System: Plasmodium falciparum
# Experiment: Antiplasmodial activity against chloroquine resistant Plasmodium falciparum K14 assessed as inhibition of parasite growth incubated for 42 hrs by [3H]-hypoxanthine incorporation based microbeta scintillation counting method
# Format: functional, organism-based
# Details: not given
row,SMILES,IC50
1,CCN(CC)c1ccc(/N=C/c2cccc(CN3CCOCC3)c2O)cc1,2280 nM
2,Oc1ccccc1/N=C/c1cccc(CN2CCOCC2)c1O,2280 nM
3,Oc1ccc(/N=C/c2cccc(CN3CCOCC3)c2O)cc1,2280 nM
4,Oc1c(/C=N/c2ccccc2/N=C/c2cccc(CN3CCOCC3)c2O)cccc1CN1CCNCC1,2280 nM
5,Oc1c(/C=N/c2ccc(Oc3ccc(/N=C/c4cccc(CN5CCOCC5)c4O)cc3)cc2)cccc1CN1CCOCC1,2280 nM

# System: Plasmodium falciparum
# Experiment: Antimalarial activity against Plasmodium falciparum 3D7 assessed as reduction of parasite growth at 25 uM incubated for 96 hrs by SYBR green I dye based fluorescence assay relative to control
# Format: functional
# Design: scale not given: the % may be the effect or the level left
# Details: not given
row,SMILES,Activity
1,COC(=O)[C@H](Cc1ccc(O)c(-c2ccc3ccccc3c2)c1)NC(=O)C(=O)c1c[nH]c2ccccc12,60%
2,COC(=O)[C@H](Cc1ccc(O)c(-c2ccc(C(F)(F)F)cc2)c1)NC(=O)C(=O)c1c[nH]c2ccccc12,60%
3,COC(=O)[C@H](Cc1ccc(O)c(I)c1)NC(=O)C(=O)c1c[nH]c2ccccc12,20%
4,COC(=O)[C@H](Cc1ccc(O)c(-c2ccc(C(C)(C)C)cc2)c1)NC(=O)C(=O)c1c[nH]c2ccccc12,60%
5,COC(=O)[C@H](Cc1ccc(O)c(-c2ccc(Cl)cc2)c1)NC(=O)C(=O)c1c[nH]c2ccccc12,60%
6,COC(=O)[C@H](Cc1ccc(O)c(-c2ccccc2)c1)NC(=O)C(=O)c1c[nH]c2ccccc12,60%
7,COC(=O)[C@H](Cc1ccc(O)c(-c2ccsc2)c1)NC(=O)C(=O)c1c[nH]c2ccccc12,60%
8,COC(=O)[C@H](Cc1ccc(O)c(-c2cccc(O)c2)c1)NC(=O)C(=O)c1c[nH]c2ccccc12,60%
9,COC(=O)[C@H](Cc1ccc(O)c(-c2ccc(C(C)=O)cc2)c1)NC(=O)C(=O)c1c[nH]c2ccccc12,60%
10,COC(=O)[C@H](Cc1ccc(O)c(C(=O)OCc2ccc(Nc3ccccc3)cc2)c1)NC(=O)C(=O)c1c[nH]c2ccccc12,60%

# System: Plasmodium falciparum
# Experiment: Antiplasmodial activity against Plasmodium falciparum 3D7 assessed as inhibition of parasite growth incubated for 72 hrs by LDH assay based spectrofluorometric analysis
# Format: functional, organism-based
# Details: 3D7, 72 h
row,SMILES,IC50
1,C/C1=C\[C@H](C)CCC(=O)/C(C)=C/[C@H](C)C[C@@H](C)CC[C@@H]([C@@H](C)C(=O)O)OC(=O)[C@@H](C)C1,9810 nM
2,C/C1=C\[C@H](C)C(=O)C[C@@H](O)/C(C)=C/[C@H](C)C[C@@H](C)CC[C@@H]([C@@H](C)C(=O)O)OC(=O)[C@@H](C)C1,123 nM
